Data on 35 compounds can be found in ChEMBL document CHEMBL5380794, “Discovery of a Potent and Selective STAT5 PROTAC Degrader with Strong Antitumor Activity In Vivo in Acute Myeloid Leukemia” (J Med Chem, 2023).

Bounds are passed on as bounds.

One test addresses T1, Signal transducer and activator of transcription 5A (Homo sapiens, UniProt P42229).
T1 sequence (P42229 whole entry): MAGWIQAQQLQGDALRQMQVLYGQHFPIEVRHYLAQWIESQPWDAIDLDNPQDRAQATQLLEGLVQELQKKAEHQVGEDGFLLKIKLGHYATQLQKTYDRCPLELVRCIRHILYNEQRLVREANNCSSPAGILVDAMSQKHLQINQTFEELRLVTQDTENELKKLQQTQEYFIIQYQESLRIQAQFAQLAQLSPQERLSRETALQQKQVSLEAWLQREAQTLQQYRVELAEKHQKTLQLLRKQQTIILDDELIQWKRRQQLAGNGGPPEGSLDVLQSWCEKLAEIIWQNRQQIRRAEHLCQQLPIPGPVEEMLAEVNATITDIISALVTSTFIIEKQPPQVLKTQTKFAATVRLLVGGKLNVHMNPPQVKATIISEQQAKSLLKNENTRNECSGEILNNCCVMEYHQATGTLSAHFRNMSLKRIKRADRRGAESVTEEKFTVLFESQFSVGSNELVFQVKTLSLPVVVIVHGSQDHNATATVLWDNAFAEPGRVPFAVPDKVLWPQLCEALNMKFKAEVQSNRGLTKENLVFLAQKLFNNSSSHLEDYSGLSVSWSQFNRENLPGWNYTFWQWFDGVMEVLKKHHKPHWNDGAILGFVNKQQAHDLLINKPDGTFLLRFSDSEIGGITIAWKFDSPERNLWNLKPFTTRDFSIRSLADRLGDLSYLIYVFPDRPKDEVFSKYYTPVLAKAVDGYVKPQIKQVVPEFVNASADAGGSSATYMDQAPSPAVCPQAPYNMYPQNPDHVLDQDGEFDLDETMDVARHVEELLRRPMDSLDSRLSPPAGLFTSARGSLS
The test can be described thus: Induction of STAT5 degradation in human SKNO-1 cells measured for 18 hrs by Western blot analysis. Type of test: cell-based. A general note: A western blot detects proteins with antibodies after separation by electrophoresis.
`CN(CCCC#Cc1cccc2c1CN(C1CCC(=O)NC1=O)C2=O)C(=O)CCN(C(=O)[C@@H]1CCCN1C(=O)[C@@H](NC(=O)c1cc2cc(C(F)(F)P(=O)(O)O)ccc2s1)C(C)(C)C)c1ccc2occc2c1` (stereo not given in full) had a DC50 of 200 nM. Compound `CC(C)(C)[C@H](NC(=O)c1cc2cc(C(F)(F)P(=O)(O)O)ccc2s1)C(=O)N1CCC[C@H]1C(=O)N(CCC(=O)NCCCC#Cc1cccc2c1CN(C1CCC(=O)NC1=O)C2=O)c1ccc2occc2c1` (stereo not given in full) came in with a DC50 of 330 nM.

In the case of `CC(C)(C)c1ccc(N(CCC(=O)NCCCC#Cc2cccc3c2CN(C2CCC(=O)NC2=O)C3=O)C(=O)[C@@H]2CCCN2C(=O)[C@@H](NC(=O)c2cc3cc(C(F)(F)P(=O)(O)O)ccc3s2)C(C)(C)C)cc1` (stereo not given in full), the DC50 is above 5000 nM. On the same count and under the same terms, then `CC(C)(C)[C@H](NC(=O)c1cc2cc(C(F)(F)P(=O)(O)O)ccc2s1)C(=O)N1CCC[C@H]1C(=O)N(CCC(=O)NCCCC#Cc1cccc2c1CN(C1CCC(=O)NC1=O)C2=O)c1ccc(S(C)(=O)=O)cc1` (stereo not given in full), with above 5000 nM.

Consider `CC(C)(C)[C@H](NC(=O)c1cc2cc(C(F)(F)P(=O)(O)O)ccc2s1)C(=O)N1CCC[C@H]1C(=O)N(CCC(=O)NCCCC#Cc1cccc2c1CN(C1CCC(=O)NC1=O)C2=O)c1ccc(F)cc1` (stereo not given in full), for which the DC50 is above 5000 nM. Still for that read-out and setting: then `CC(C)(C)[C@H](NC(=O)c1cc2cc(C(F)(F)P(=O)(O)O)ccc2s1)C(=O)N1CCC[C@H]1C(=O)N(CCC(=O)NCCCC#Cc1cccc2c1CN(C1CCC(=O)NC1=O)C2=O)c1ccc(-c2cccs2)cc1` (stereo not given in full), with 210 nM; and `CC(C)(C)[C@H](NC(=O)c1cc2cc(C(F)(F)P(=O)(O)O)ccc2s1)C(=O)N1CCC[C@H]1C(=O)N(CCC(=O)NCCCC#Cc1cccc2c1CN(C1CCC(=O)NC1=O)C2=O)c1ccc(C#N)cc1` (stereo not given in full), with above 5000 nM. On the same count and under the same terms, for `CC(C)(C)[C@H](NC(=O)c1cc2cc(C(F)(F)P(=O)(O)O)ccc2s1)C(=O)N1CCC[C@H]1C(=O)N(CCC(=O)NCCCC#Cc1cccc2c1CN(C1CCC(=O)NC1=O)C2=O)c1ccccc1` (stereo not given in full) the value was above 5000 nM.

In turn, `CC(C)(C)[C@H](NC(=O)c1cc2cc(C(F)(F)P(=O)(O)O)ccc2s1)C(=O)N1CCC[C@H]1C(=O)N(CCC(=O)NCCCC#Cc1cccc2c1CN(C1CCC(=O)NC1=O)C2=O)c1cccc(C(F)(F)F)c1` (stereo not given in full) showed a DC50 above 5000 nM. Still for that read-out and setting: then `CN(CCCC#Cc1cccc2c1CN(C1CCC(=O)NC1=O)C2=O)C(=O)CCN(C(=O)[C@@H]1CCCN1C(=O)[C@@H](NC(=O)c1cc2cc(C(F)(F)P(=O)(O)O)ccc2s1)C(C)(C)C)c1ccc2sccc2c1` (stereo not given in full), with 130 nM; and `CC(C)(C)[C@H](NC(=O)c1cc2cc(C(F)(F)P(=O)(O)O)ccc2s1)C(=O)N1CCC[C@H]1C(=O)N(CCC(=O)NCCCC#Cc1cccc2c1CN(C1CCC(=O)NC1=O)C2=O)c1cccc(C#N)c1` (stereo not given in full), with above 5000 nM; and `CC(C)(C)[C@H](NC(=O)c1cc2cc(C(F)(F)P(=O)(O)O)ccc2s1)C(=O)N1CCC[C@H]1C(=O)N(CCC(=O)NCCCC#Cc1cccc2c1CN(C1CCC(=O)NC1=O)C2=O)c1cccc2sccc12` (stereo not given in full), with above 5000 nM. Still for that read-out and setting: for `Cc1ccc(N(CCC(=O)NCCCC#Cc2cccc3c2CN(C2CCC(=O)NC2=O)C3=O)C(=O)[C@@H]2CCCN2C(=O)[C@@H](NC(=O)c2cc3cc(C(F)(F)P(=O)(O)O)ccc3s2)C(C)(C)C)cc1` (stereo not given in full) the value was 310 nM; for `CC(C)(C)[C@H](NC(=O)c1cc2cc(C(F)(F)P(=O)(O)O)ccc2s1)C(=O)N1CCC[C@H]1C(=O)N(CCC(=O)NCCCC#Cc1cccc2c1CN(C1CCC(=O)NC1=O)C2=O)c1ccc2ncsc2c1` (stereo not given in full), above 5000 nM. On the same count and under the same terms, then `CC(C)(C)[C@H](NC(=O)c1cc2cc(C(F)(F)P(=O)(O)O)ccc2s1)C(=O)N1CCC[C@H]1C(=O)N(CCCCCCCC#Cc1cccc2c1CN(C1CCC(=O)NC1=O)C2=O)c1ccc(-c2nccs2)cc1` (stereo not given in full), with above 5000 nM; and `CC(C)(C)[C@H](NC(=O)c1cc2cc(C(F)(F)P(=O)(O)O)ccc2s1)C(=O)N1CCC[C@H]1C(=O)N(CCC(=O)NCCCC#Cc1cccc2c1CN(C1CCC(=O)NC1=O)C2=O)c1ccc2ccccc2c1` (stereo not given in full), with 210 nM; and `CC(C)(C)[C@H](NC(=O)c1cc2cc(C(F)(F)P(=O)(O)O)ccc2s1)C(=O)N1CCC[C@H]1C(=O)N(CCC(=O)NCCCC#Cc1cccc2c1CN(C1CCC(=O)NC1=O)C2=O)c1ccc(Cl)cc1` (stereo not given in full), with 2100 nM. `CC(C)(C)[C@H](NC(=O)c1cc2cc(C(F)(F)P(=O)(O)O)ccc2s1)C(=O)N1CCC[C@H]1C(=O)N(CCC(=O)NCCCC#Cc1cccc2c1CN(C1CCC(=O)NC1=O)C2=O)c1ccc(C(F)(F)F)cc1` (stereo not given in full) displayed a DC50 of 2000 nM. `CC(C)(C)[C@H](NC(=O)c1cc2cc(C(F)(F)P(=O)(O)O)ccc2s1)C(=O)N1CCC[C@H]1C(=O)N(CCC(=O)NCCCC#Cc1cccc2c1CN(C1CCC(=O)NC1=O)C2=O)c1ccc(I)cc1` (stereo not given in full) displayed a DC50 of 530 nM.

In the case of `CN(CCCC#Cc1cccc2c1CN(C1CCC(=O)NC1=O)C2=O)C(=O)CCN(C(=O)[C@@H]1CCCN1C(=O)[C@@H](NC(=O)c1cc2cc(C(F)(F)P(=O)(O)O)ccc2s1)C(C)(C)C)c1ccc2ccccc2c1` (stereo not given in full), the DC50 was found to be 130 nM.

`CC(C)(C)[C@H](NC(=O)c1cc2cc(C(F)(F)P(=O)(O)O)ccc2s1)C(=O)N1CCC[C@H]1C(=O)N(CCC(=O)NCCCC#Cc1cccc2c1CN(C1CCC(=O)NC1=O)C2=O)c1ccc(-c2nccs2)cc1` (stereo not given in full): the DC50 is 130 nM.

In turn, `CC(C)(C)[C@H](NC(=O)c1cc2cc(C(F)(F)P(=O)(O)O)ccc2s1)C(=O)N1CCC[C@H]1C(=O)N(CCC(=O)NCCCC#Cc1cccc2c1CN(C1CCC(=O)NC1=O)C2=O)c1ccc(Cl)c(F)c1` (stereo not given in full) registered a DC50 above 5000 nM. Still for that read-out and setting: then `CN(CCCC#Cc1cccc2c1CN(C1CCC(=O)NC1=O)C2=O)C(=O)CCN(C(=O)[C@@H]1CCCN1C(=O)[C@@H](NC(=O)c1cc2cc(C(F)(F)P(=O)(O)O)ccc2s1)C(C)(C)C)c1ccc2scnc2c1` (stereo not given in full), with 330 nM.

The target in the next test is T2, Signal transducer and activator of transcription 5B (Homo sapiens, UniProt P51692).
T2 sequence (P51692 whole entry): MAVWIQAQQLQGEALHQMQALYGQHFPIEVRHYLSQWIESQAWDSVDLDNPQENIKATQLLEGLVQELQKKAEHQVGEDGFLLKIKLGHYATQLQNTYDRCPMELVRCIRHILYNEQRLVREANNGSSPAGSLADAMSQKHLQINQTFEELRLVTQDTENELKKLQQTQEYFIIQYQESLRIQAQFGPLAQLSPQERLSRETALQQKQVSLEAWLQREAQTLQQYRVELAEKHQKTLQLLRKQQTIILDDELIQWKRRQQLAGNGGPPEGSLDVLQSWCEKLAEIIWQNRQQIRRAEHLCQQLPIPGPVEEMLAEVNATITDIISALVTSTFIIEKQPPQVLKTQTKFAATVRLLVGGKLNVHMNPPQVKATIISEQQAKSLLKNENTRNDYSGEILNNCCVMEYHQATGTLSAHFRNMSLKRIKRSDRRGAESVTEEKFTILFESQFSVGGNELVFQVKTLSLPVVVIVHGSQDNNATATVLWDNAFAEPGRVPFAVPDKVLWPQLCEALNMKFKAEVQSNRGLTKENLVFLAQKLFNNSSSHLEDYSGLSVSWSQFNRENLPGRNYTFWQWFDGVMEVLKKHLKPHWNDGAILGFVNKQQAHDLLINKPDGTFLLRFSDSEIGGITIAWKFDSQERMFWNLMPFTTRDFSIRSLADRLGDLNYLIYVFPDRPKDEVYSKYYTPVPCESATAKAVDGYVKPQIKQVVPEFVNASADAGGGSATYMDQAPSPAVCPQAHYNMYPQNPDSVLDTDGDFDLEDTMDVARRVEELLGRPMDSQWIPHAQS
The test can be described thus: Binding affinity to STAT5B (unknown origin) assessed as inhibition constant by FP assay.
Consider `CN(C)C(=O)CCN(C(=O)[C@@H]1CCCN1C(=O)[C@@H](NC(=O)c1cc2cc(C(F)(F)P(=O)(O)O)ccc2s1)C(C)(C)C)c1cccc(Br)c1`, for which the Ki was found to be 7000 nM. Same read-out and setting: then `CN(C(=O)[C@@H]1CCCN1C(=O)[C@@H](NC(=O)c1cc2cc(C(F)(F)P(=O)(O)O)ccc2s1)C(C)(C)C)c1ccccc1`, with 6200 nM; and `CC(C)(C)[C@H](NC(=O)c1cc2cc(C(F)(F)P(=O)(O)O)ccc2s1)C(=O)N1CCC[C@H]1C(=O)N1CCC2(CCC2)C1`, with above 10000 nM.

Regarding `CN(C)C(=O)CCN(C(=O)[C@@H]1CCCN1C(=O)[C@@H](NC(=O)c1cc2cc(C(F)(F)P(=O)(O)O)ccc2s1)C(C)(C)C)c1ccccc1`, the Ki was determined as 6800 nM.

On to `CN(C)C(=O)CCN(C(=O)[C@@H]1CCCN1C(=O)[C@@H](NC(=O)c1cc2cc(C(F)(F)P(=O)(O)O)ccc2s1)C(C)(C)C)c1ccc(Cl)cc1`, for which the Ki is 4200 nM. Same read-out and setting: then `CN(C)C(=O)CCN(C(=O)[C@@H]1CCCN1C(=O)[C@@H](NC(=O)c1cc2cc(C(F)(F)P(=O)(O)O)ccc2s1)C(C)(C)C)c1ccc2scnc2c1`, with 1300 nM.

Consider `CC(C)(C)[C@H](NC(=O)c1cc2cc(C(F)(F)P(=O)(O)O)ccc2s1)C(=O)N1CCC[C@H]1C(=O)N1CCCc2ccccc21`, for which the Ki was 6200 nM. With `CN(C)C(=O)CCN(C(=O)[C@@H]1CCCN1C(=O)[C@@H](NC(=O)c1cc2cc(C(F)(F)P(=O)(O)O)ccc2s1)C(C)(C)C)c1ccc(Br)cc1`, the Ki was 2100 nM. On to `CC(C)(C)[C@H](NC(=O)c1cc2cc(C(F)(F)P(=O)(O)O)ccc2s1)C(=O)N1CCC[C@H]1C(=O)Nc1ccccc1`, for which the Ki was above 10000 nM. For `CC(C)(C)[C@H](NC(=O)c1cc2cc(C(F)(F)P(=O)(O)O)ccc2s1)C(=O)N1CCC[C@H]1C(=O)N1CCCOCC1`, the Ki is above 10000 nM. Turning to `CN(C)C(=O)CCN(C(=O)[C@@H]1CCCN1C(=O)[C@@H](NC(=O)c1cc2cc(C(F)(F)P(=O)(O)O)ccc2s1)C(C)(C)C)c1ccc2occc2c1`, the inhibition constant Ki amounted to 2000 nM. As to `C/C(=C\C(=O)N[C@H](C(=O)N1CCC[C@H]1C(=O)N1CCCc2ccccc21)C(C)(C)C)c1ccc(C(F)(F)P(=O)(O)O)cc1`, the Ki was above 10000 nM.

The DC50 is the midpoint of the concentration-degradation curve. A low value points to a more potent degrader. One may read the Ki as a dissociation constant, usually derived from enzyme kinetics or from competition with a known ligand.
